# Test results published in US20040038222A1 (priority 2001, published 2004).
# Columns and labels:
# [1] = tested on: C57BL/6J and C3H/HeJ primary bone marrow-derived macrophages
# KiflC in NIH3T3 cells = details: cited from earlier work
# Chain of KiflC in NIH3T3 cells (O35071 whole entry): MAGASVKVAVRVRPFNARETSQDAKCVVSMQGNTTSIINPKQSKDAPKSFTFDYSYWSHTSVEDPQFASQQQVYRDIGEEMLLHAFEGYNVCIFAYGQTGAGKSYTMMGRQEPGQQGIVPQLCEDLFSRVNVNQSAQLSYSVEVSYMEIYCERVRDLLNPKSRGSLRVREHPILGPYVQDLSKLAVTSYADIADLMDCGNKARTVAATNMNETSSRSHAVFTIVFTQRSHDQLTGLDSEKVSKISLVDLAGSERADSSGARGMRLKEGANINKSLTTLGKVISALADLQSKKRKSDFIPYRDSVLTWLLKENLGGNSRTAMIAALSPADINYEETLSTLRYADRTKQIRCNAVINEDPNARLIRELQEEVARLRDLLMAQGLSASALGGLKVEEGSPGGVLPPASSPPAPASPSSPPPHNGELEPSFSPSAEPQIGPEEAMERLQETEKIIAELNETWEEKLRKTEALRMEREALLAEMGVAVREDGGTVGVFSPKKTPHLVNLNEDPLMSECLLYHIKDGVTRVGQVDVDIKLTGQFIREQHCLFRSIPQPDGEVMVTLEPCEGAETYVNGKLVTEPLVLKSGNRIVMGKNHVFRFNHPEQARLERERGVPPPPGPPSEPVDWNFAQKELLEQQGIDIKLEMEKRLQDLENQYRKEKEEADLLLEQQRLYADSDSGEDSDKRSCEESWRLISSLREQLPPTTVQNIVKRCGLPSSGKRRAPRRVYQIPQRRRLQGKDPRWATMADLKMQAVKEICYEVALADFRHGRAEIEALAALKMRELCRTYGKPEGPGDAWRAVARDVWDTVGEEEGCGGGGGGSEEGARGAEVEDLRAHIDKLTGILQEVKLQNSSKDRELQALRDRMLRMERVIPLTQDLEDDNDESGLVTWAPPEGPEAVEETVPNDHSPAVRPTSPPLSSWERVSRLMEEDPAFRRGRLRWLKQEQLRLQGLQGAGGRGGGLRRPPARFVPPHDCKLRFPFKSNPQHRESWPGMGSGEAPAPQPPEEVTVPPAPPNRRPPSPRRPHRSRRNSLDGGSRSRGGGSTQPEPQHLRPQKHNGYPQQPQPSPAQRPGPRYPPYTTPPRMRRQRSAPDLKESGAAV
substance,measurement,setting,value
brefeldin A [BFA],Susceptibility of susceptible macrophages to intoxication with LF in the presence of BFA,[1],unaltered
same,Relocalization of KiflC,KiflC in NIH3T3 cells,dramatic relocalization of KiflC to the Endoplasmic Reticulum
